According to article PMC6263802 (Journal of natural products, 2018):
Like-named read-outs stand apart in the source and are kept apart here.

What was measured:
[1] = biological target: T1, hCE1 (human liver CE; CES1) (Homo sapiens, UniProt P23141); assay: Inhibition of hCE1 with o-nitrophenyl acetate; type: biochemical; settings: for hCE1 (o-NPA) Fold increase in potency: compared to the parent tanshinone
T1 sequence (P23141 18-563 limits assumed): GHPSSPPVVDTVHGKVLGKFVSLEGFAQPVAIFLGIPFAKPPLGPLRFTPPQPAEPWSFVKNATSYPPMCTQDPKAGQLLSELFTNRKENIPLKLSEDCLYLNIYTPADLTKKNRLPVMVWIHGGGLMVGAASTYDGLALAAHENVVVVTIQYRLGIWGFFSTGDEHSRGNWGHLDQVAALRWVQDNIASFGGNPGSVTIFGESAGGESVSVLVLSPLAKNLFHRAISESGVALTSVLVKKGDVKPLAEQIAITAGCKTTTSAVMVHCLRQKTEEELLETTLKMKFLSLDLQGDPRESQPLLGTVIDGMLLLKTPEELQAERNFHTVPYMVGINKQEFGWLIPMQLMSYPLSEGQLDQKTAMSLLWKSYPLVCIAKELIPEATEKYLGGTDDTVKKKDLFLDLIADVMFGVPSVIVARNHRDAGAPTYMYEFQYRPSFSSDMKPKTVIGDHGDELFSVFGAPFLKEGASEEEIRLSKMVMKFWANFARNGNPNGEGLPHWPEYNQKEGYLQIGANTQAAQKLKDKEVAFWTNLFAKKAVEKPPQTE

[2] = biological target: T2, hiCE (human intestinal CE; CES2) (Homo sapiens, UniProt O00748); assay: Inhibition of hiCE with o-NPA as substrate, spectrophotometric assay; type: biochemical; settings: compared to the parent tanshinone
T2 sequence (O00748 27-555 limits assumed): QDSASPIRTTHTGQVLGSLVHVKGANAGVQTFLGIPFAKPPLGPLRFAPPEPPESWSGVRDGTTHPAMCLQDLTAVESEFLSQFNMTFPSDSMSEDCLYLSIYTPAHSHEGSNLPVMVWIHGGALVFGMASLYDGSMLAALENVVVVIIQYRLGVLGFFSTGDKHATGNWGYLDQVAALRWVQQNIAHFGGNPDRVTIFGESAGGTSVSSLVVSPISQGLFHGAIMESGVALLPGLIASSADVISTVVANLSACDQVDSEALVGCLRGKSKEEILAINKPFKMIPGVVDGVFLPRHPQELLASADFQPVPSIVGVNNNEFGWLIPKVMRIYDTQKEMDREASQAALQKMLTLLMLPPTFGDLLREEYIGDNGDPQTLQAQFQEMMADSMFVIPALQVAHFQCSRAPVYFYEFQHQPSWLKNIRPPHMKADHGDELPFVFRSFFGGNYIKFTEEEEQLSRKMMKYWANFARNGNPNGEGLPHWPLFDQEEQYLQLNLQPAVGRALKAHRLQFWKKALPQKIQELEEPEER

hCE1 [3] = biological target: T3, hCE1 (Homo sapiens, UniProt P23141); type: biochemical; settings: after pre-incubation and removal of the small molecule
T3 sequence (P23141 18-563 limits assumed): T1 sequence (P23141 18-563 limits assumed)

hiCE = biological target: T4, hiCE (Homo sapiens, UniProt O00748); type: biochemical; settings: after pre-incubation and removal of the small molecule
T4 sequence (O00748 27-555 limits assumed): T2 sequence (O00748 27-555 limits assumed)

[4] = tested on: U373MG cells expressing hCE1; assay: Intracellular inhibition of oseltamivir hydrolysis; type: cell-based, human; settings: 10μM inhibitor 10 min, then oseltamivir 20μM 30 min; versus DMSO
hAChE = hAChE (Homo sapiens, UniProt P22303); assay: Inhibition of human acetylcholinesterase with acetylthiocholine; type: biochemical; settings: for inhibition at 10 µM: read-out: hAChE % Inhibition at 10μM
Chain of hAChE (P22303 32-614): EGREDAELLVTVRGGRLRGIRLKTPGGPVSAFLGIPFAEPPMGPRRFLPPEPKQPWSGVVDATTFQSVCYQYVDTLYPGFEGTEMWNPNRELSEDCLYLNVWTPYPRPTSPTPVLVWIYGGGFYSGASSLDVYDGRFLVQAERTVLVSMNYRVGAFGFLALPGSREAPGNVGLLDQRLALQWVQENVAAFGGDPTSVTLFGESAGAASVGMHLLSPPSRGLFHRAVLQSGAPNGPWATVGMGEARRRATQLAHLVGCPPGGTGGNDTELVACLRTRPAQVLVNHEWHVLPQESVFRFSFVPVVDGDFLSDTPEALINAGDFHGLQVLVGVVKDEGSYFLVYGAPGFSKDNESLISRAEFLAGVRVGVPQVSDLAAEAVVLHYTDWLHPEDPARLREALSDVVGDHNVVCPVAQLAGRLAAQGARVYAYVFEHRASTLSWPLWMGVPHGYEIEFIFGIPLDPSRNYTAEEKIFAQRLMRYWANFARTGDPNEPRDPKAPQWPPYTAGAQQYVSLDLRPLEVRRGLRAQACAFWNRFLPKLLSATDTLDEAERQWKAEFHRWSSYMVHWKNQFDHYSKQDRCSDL

hBChE = hBChE (Homo sapiens, UniProt P06276); assay: Inhibition of human butyrylcholinesterase with butyrylthiocholine; type: biochemical; settings: for inhibition at 10 µM: read-out: hBChE % Inhibition at 10μM
Chain of hBChE (P06276 29-602): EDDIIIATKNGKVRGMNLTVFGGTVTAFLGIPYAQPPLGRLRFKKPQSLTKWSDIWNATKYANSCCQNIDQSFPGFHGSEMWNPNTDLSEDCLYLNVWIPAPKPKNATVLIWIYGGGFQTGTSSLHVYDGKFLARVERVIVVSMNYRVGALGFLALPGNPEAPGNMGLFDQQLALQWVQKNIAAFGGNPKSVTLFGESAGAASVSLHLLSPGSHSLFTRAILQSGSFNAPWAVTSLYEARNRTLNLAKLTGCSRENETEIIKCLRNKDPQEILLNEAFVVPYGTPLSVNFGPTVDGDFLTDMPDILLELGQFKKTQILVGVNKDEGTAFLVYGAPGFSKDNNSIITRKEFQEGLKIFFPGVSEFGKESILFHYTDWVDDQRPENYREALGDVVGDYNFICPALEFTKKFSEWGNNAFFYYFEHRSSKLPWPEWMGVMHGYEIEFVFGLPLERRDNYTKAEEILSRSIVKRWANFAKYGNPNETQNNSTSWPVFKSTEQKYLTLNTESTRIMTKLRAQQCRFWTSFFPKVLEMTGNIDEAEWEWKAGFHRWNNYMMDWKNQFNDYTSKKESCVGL

hCE1 [5] = biological target: T3, hCE1; assay: MS analysis of hCE1 protein after incubation with small molecules; settings: for Increase in mass of hCE1 after incubation: all three enzyme species, 4 at 10μM
[6] = biological target: T1, hCE1 (human liver CE; CES1); settings: read-out: hCE1 (o-NPA) Ki ± SE; parent tanshinones, previously reported; cited from earlier work
[7] = hCE1 species of 61374 Da (first glycoform)
[8] = hCE1 species of 61537 Da (second glycoform)
[9] = hCE1 species of 61698 Da (third glycoform)

SMILES | hCE1 (o-NPA) Fold increase in potency [1] | hiCE (o-NPA) Fold increase in potency [2] | Irreversibility of hCE1 inhibition (hCE1 [3]) | Irreversibility of hiCE inhibition (hiCE) | Reduction in oseltamivir hydrolysis (oseltamivir carboxylate formed) [4] | IC50 (hAChE) [µM] | inhibition at 10 µM (hAChE) [%] | IC50 (hBChE) [µM] | inhibition at 10 µM (hBChE) [%] | other results
Cc1cccc2c1ccc1c3occ(C)c3c(=O)oc(=O)c21 [Compound 2, 4,9-dimethylfuro[3,2-c]naphtho[2,1-e]oxepine-1,3-dione] | 10,937 fold | 17,744 fold | irreversible inhibition | irreversible inhibition | more than 70% |  |  |  |  | 
C[C@H]1COc2c1c(=O)oc(=O)c1c3c(ccc21)C(C)(C)CCC3 [Compound 8, 4,9,9-trimethyl-4,5,9,10,11,12-hexahydrofuro[3,2-c]naphtho[2,1-e]oxepine-1,3-dione] | 194 fold | 188 fold | irreversible inhibition | irreversible inhibition | more than 70% |  |  |  |  | IC50 [1]: 0.00133 µM; Irreversibility of hCE1 inhibition (hCE1 [3]; listed as B): irreversible enzyme inhibition; Irreversibility of hiCE inhibition (hiCE; listed as B): irreversible enzyme inhibition
C[C@H]1COC2=C1C(=O)C(=O)c1c2ccc2c1CCCC2(C)C [Compound 7, Crypto-tanshinone] |  |  |  |  |  | 6.41 | 44 | > 10 | 1 | 
O=S(=O)(F)Cc1ccccc1 [PMSF, phenylmethanesulfonyl fluoride, reference compound] |  |  |  |  |  |  |  |  |  | Increase in mass of hCE1 after incubation (hCE1 [5]): 154–157 Da
Cc1cccc2c3c(ccc12)C1=C(C(=O)C3=O)[C@@H](C)CO1 [Compound 5, Dihydro-tanshinone] |  |  |  |  |  |  |  |  |  | hAChE % Inhibition at 10μM (hAChE; 10μM inhibitor): 84%; IC50 (hAChE; read-out: hAChE IC50 ± SE, ATCh substrate): 1.95 µM; hBChE % Inhibition at 10μM (hBChE; 10μM inhibitor): 5%; IC50 (hBChE; read-out: hBChE IC50 ± SE, BTCh substrate): > 10 µM; Ki [6]: 0.398 ± 0.066 µM
Cc1coc2c1C(=O)C(=O)c1c-2ccc2c(C)cccc12 [Compound 1, Tanshinone I] |  |  |  |  |  | > 10 | 10 | > 10 | 6 | 
Cc1cccc2c1ccc1c3c(c(=O)oc(=O)c12)[C@@H](C)CO3 [Compound 6, 4,9-dimethyl-4,5-dihydrofuro[3,2-c]naphtho[2,1-e]oxepine-1,3-dione] | 111 fold | 193 fold | irreversible inhibition | irreversible inhibition |  |  |  |  |  | Observed mass of adduct (hCE1 [5]; [7]): 288 Da; Observed mass of adduct (hCE1 [5]; [8]): 289 Da; Observed mass of adduct (hCE1 [5]; [9]): 282 Da
Cc1coc2c1C(=O)C(=O)c1c-2ccc2c1CCCC2(C)C [Compound 3, Tanshinone IIA] |  |  |  |  |  | > 10 | 4 | > 10 | 1 | 
Cc1coc2c1c(=O)oc(=O)c1c3c(ccc12)C(C)(C)CCC3 [Compound 4, 4,9,9-trimethyl-9,10,11,12-tetrahydrofuro[3,2-c]naphtho[2,1-e]oxepine-1,3-dione] | 3,626 fold | 1,750 fold | irreversible inhibition | irreversible inhibition | more than 70% |  |  |  |  | IC50 [1]: 0.00106 µM; Irreversibility of hCE1 inhibition (hCE1 [3]; listed as A): irreversible enzyme inhibition; Irreversibility of hiCE inhibition (hiCE; listed as A): irreversible enzyme inhibition; Increase in mass of hCE1 after incubation (hCE1 [5]): 308–312 Da; Observed mass of adduct (hCE1 [5]; [7]): 312 Da; Observed mass of adduct (hCE1 [5]; [8]): 308 Da; Observed mass of adduct (hCE1 [5]; [9]): 309.8 Da
